A short description of data set [1]: Varenicline concentrations in blood, PFC and CSF after single oral administration. It counts as in vivo, rat. As to conditions: male rats.
Data set [2] can be described thus: 28-day study: varenicline PK in blood samples. It is filed as in vivo, rat. How it is done:
A 28-day biodistribution/toxicity study was conducted.

Data set [3] has as its system m-α7-GlyR ion channels in cultured hippocampal neurons. As to the kind of experiment: Sustained varenicline exposure of cultured hippocampal neurons expressing m-α7-GlyR. It is filed as cell-based. The note with it: varenicline 15 nM for 18 days; data not shown.
A further data set has as its system rat IoN-CCI model. Nature of the data set: Rat IoN-CCI model of trigeminal neuralgia, von Frey filament escape threshold (ET). It counts as in vivo. How it is done:
Infraorbital nerve (IoN) chronic constriction injury (IoN-CCI) is an art-recognized animal model of trigeminal neuralgia (Vos et al. J Neurosci 14 (5 Pt 1): 2708-2723, 1994).
Mechanical allodynia was measured using a von Frey filament assay to define the escape threshold [ET]) in the rat IoN-CCI model. The total study duration was 6 months with two intermittent time points (2-and 4-months). Behavioral efficacy, as assessed by ET, and transgene expression in the trigeminal ganglion were evaluated.
Twelve groups of male and female adult rats were treated. AAV5-m-α7-GlyR LGIC vectors were injected percutaneously into the left trigeminal ganglion whereas the right untreated trigeminal ganglion served as control.
Naïve animals (no IoN-CCI, no AAV5-m-α7-GlyR LGIC or varenicline dosing) served as intact controls for behavioral and molecular analysis.
Varenicline tartrate was administered orally. A tartrate correction factor of 1.71 was applied in dose formulations.
Efficacy presented below is a combination of all 3 time points (2, 4, and 6 months) for each treatment group.

Data set [4] deals with m-α7-GlyR LGICs expressed in mouse cortical neurons. As to the kind of experiment: Evoked neuronal activity in mouse cortical neurons expressing m-α7-GlyR LGICs. It is filed as cell-based. The note with it: data not shown.
The test system of a further data set is CNS function. The note with it: rat, in vivo.
Data set [5] concerns the target α7^L131G, Q139L, Y217F-GlyR LGIC (Homo sapiens, UniProt P36544, L131G/Q139L/Y217F). As to the kind of experiment: Agonist potency at the modified chimeric LGIC. It counts as cell-based.
A further data set addresses T1, m-α7-GlyR LGIC (Homo sapiens, UniProt P36544, L131G/Q139L/Y217F).
T1 construct: expressed in transfected cells; host or cells: rodent neurons expressing the transgene (mouse cortical neurons, cultured hippocampal neurons; rat trigeminal ganglion after AAV5 injection)
Nature of the data set: Constitutive activity of m-α7-GlyR LGIC without varenicline. The note with it: absence of varenicline. It counts as in vivo, rodents.

Structures can show the parent of a compound that is named as a salt.

For the molecule `c1cnc2cc3c(cc2n1)[C@@H]1CNC[C@H]3C1` [varenicline, 6,10-Methano-6H-pyrazino[2,3-h][3]benzazepine, 7,8,9,10-tetrahydro-5,8,14-triazatetracyclo[10.3.1.02,11.04,9]hexadeca-2,4,6,8,10-pentaene tartrate salt], in data set [1], the “time of peak varenicline concentration in CSF” value is 60 min, the “time of peak varenicline concentration in PFC” value is 90 min and the “time of peak varenicline concentration in blood” value came to 60 min. Further, the “decrease of varenicline level” value in data set [2] (6 hours post-dose vs 2 hours, 1 mg/kg p.o.) is “approximately 50%”. The concentration at 2 h in data set [2] (rat, blood, po, 2 hours post-dose, 1 mg/kg p.o., average across groups) is around 480 nM. The same molecule showed a concentration at 24 h in data set [2] (rat, blood, po, 24 hours post final dose, 1 mg/kg p.o. daily, average) of 4.4 nM. Moreover, in data set [2] (rat, in vivo), the “sex differences in plasma varenicline levels” value is “no sex differences in plasma varenicline levels”. For the same molecule, the “tachyphylaxis or down regulation of expressed m-α7-GlyR LGICs” value in data set [3] is given as “did not result in tachyphylaxis or down regulation”. Further, the “improvement of pain sensitivity, single agent alone” value in the data set with rat IoN-CCI model (Group 6 varenicline alone, Group 7 AAV5-m-α7-GlyR LGIC (6×10^8 vg) alone, tartrate salt) was “neither varenicline alone nor AAV5-m-α7-GlyR LGIC alone (Groups 6 and 7, respectively) demonstrated improved pain sensitivity”. For the same molecule, in the data set on rat IoN-CCI model (all animals receiving treatment), the “varenicline levels at the time of sample collection” value is given as “within predictable levels”. Moreover, the “effect of activation by varenicline on evoked neuronal activity” value in data set [4] was “reversible inhibition of evoked neuronal activity”. Further, in the data set with CNS function, the “treatment related changes in the neurological assessments” value is given as “no AAV5-m-α7-GlyR LGIC, varenicline or AAV5-m-α7-GlyR LGIC+varenicline related changes in the neurological assessments”.
For orientation: EC50 means the midpoint of the concentration-response curve. On to `C[N+](C)(C)CCO` [choline], for which the EC50 in data set [5] was above 50 µM.

B1: m-α7-GlyR LGIC: human chimeric ion channel: modified nicotinic α7 receptor binding domain and glycine channel ion pore domain; SEQ ID NO: 1 (protein)
chain: MRCSPGGVWLALAASLLHVSLQGEFQRKLYKELVKNYNPLERPVANDSQPLTVYFSLSLLQIMDVDEKNQVLTTNIWLQMSWTDHYLQWNVSEYPGVKTVRFPDGQIWKPDILLYNSADERFDATFHTNVGVNSSGHCLYLPPGIFKSSCYIDVRWFPFDVQHCKLKFGSWSYGGWSLDLQMQEADISGYIPNGEWDLVGIPGKRSERFYECCKEPFPDVTFTVTMRRRMGYYLIQMYIPSLLIVILSWISFWINMDAAPARVGLGITTVLTMTTQSSGSRASLPKVSYVKAIDIWMAVCLLFVFSALLEYAAVNFVSRQHKELLRFRRKRRHHKEDEAGEGRFNFSAYGMGPACLQAKDGISVKGANNSNTTNPPPAPSKSPEEMRKLFIQRAKKIDKISRIGFPMAFLIFNMFYWIIYKIVRREDVHNQ
For B1, in the data set with m-α7-GlyR LGIC, the constitutive activity result is “no constitutive activity”.

Values taken from patent publication US20240390521A1, “CHIMERIC MODIFIED ION CHANNELS AND USES THEREOF FOR TREATMENT OF TRIGEMINAL NERVE DISORDERS” (Kriya Therapeutics, Inc., priority 2023, published 2024).
